Data taken from patent US9096494B2, “Arachidonic acid analogs and methods for analgesic treatment using same” (priority 2009, dated 2015).

Columns and labels:
mice [1] = experiment: Tail-flick assay in mouse; type: in vivo
Description: The tail-flick assay is based on the time measured to reflex withdrawal of the tail in response to a radiant heat source. The maximum exposure time to the radiant heat source is set at 10 seconds. Prior to treatment, a baseline (BL) time measured to tail-flick withdrawal is determined after two exposures to the radiant source separated by a 30 min period. Control mice are intravenously treated with vehicle and test mice are intravenously treated with analgesic test compound. Data of tail-flick withdrawal of treated mice (TM) are calculated as maximum possible effect (MPE), where MPE=(TM−BL)/(10−BL). Tail-flick withdrawal is measured at 5 min, 15 min, 30 mm, and 1 hr. A total of 3-5 mice are used for each time point tested.

[2] = Intravenous analgesia: onset and duration of effect
mice [3] = experiment: Writhing assay in mouse (bolus and continuous infusion); type: in vivo

SMILES | time to maximal (full) analgesic response, tail-flick (mice [1]; 10 mg/kg intravenous bolus) | dose needed in tail-flick assay relative to writhing assay for a moderate level of efficacy (mice [1]; intravenous) | time to peak effect ([2]; animal tests) | onset of analgesia after intravenous bolus injection or infusion ([2]; from the start of injection) | duration of analgesic effect from bolus injection ([2]; intravenous bolus) | continuous infusion dose producing roughly the same level of analgesia (roughly 50% MPE), writhing assay (mice [3]; mouse, in vivo) | time over which analgesic levels are sustained by continuous infusion (mice [3]; mouse, in vivo) | dose achieving 100% MPE, writhing assay (mice [3]; mouse, in vivo, iv) | dose dependence of the level of analgesia (mice [3]; mouse writhing assay)
CN1CC[C@]23c4c5ccc(O)c4O[C@H]2[C@@H](O)C=C[C@H]3[C@H]1C5 [Morphine, morphine, reference compound] | 15 min | roughly 100 × | 15 to 40 min | 20 min | 35 to 40 min | 1 mg/kg/h | 24 h | approximately 0.5 mg/kg | –
CC(=O)Nc1ccc(O)cc1 [acetaminophen, reference compound] | – | – | – | – | – | – | – | – | not dose dependent
